Reference: PubChem BioAssay AID256 (DTP/NCI, 2004)
Where “and” joins values, the source holds several entries; their conditions need not be identical. Identical values can stand only once. Toxic doses and inconclusive results are not listed. The calls were made as follows: active = survival T/C of 150% or more; inactive = T/C below 125% in these data.

Test system: CD2F1 mice, L1210 leukemia ip, survival T/C
Assay: NCI In Vivo Anticancer Drug Screen. Data for tumor model L1210 Leukemia (intraperitoneal) in CD2F1 (CDF1) mice
Settings: higher = longer survival
Outline: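 Each value reflects a quotient of treated over vehicle control outcomes in mice with a transplanted tumor.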

[1] = endpoint: mean survival time, dose: 100.0 mg/kg/injection, schedule: Q01DX009 (ip), vehicle: saline with Tween-80
[2] = endpoint: mean survival time, dose: 200.0 mg/kg/injection, schedule: Q01DX009 (ip), vehicle: saline with Tween-80
[3] = endpoint: mean survival time, dose: 400.0 mg/kg/injection, schedule: Q01DX009 (ip), vehicle: saline with Tween-80
[4] = endpoint: mean survival time, dose: 100.0 mg/kg/injection, schedule: Q04DX003 (ip), vehicle: saline with Tween-80
[5] = endpoint: mean survival time, dose: 200.0 mg/kg/injection, schedule: Q04DX003 (ip), vehicle: saline with Tween-80
[6] = endpoint: mean survival time, dose: 400.0 mg/kg/injection, schedule: Q04DX003 (ip), vehicle: saline with Tween-80
[7] = endpoint: mean survival time, dose: 50.0 mg/kg/injection, schedule: Q04DX003 (ip), vehicle: Klucel (hydroxypropylcellulose) (HPC)
[8] = endpoint: mean survival time, dose: 100.0 mg/kg/injection, schedule: Q04DX003 (ip), vehicle: saline
[9] = endpoint: mean survival time, dose: 200.0 mg/kg/injection, schedule: Q04DX003 (ip), vehicle: saline
[10] = endpoint: mean survival time, dose: 400.0 mg/kg/injection, schedule: Q04DX003 (ip), vehicle: saline
[11] = endpoint: mean survival time, dose: 100.0 mg/kg/injection, schedule: Q01DX001 (ip), vehicle: saline
[12] = endpoint: mean survival time, dose: 200.0 mg/kg/injection, schedule: Q01DX001 (ip), vehicle: saline
[13] = endpoint: mean survival time, dose: 400.0 mg/kg/injection, schedule: Q01DX001 (ip), vehicle: saline
[14] = endpoint: mean survival time, dose: 25.0 mg/kg/injection, schedule: Q01DX009 (ip), vehicle: saline with Tween-80
[15] = endpoint: mean survival time, dose: 50.0 mg/kg/injection, schedule: Q01DX009 (ip), vehicle: saline with Tween-80
[16] = endpoint: mean survival time, dose: 100.0 mg/kg/injection, schedule: Q01DX001 (ip), vehicle: saline with Tween-80
[17] = endpoint: mean survival time, dose: 100.0 mg/kg/injection, schedule: Q04DX003 (ip), vehicle: acetone
[18] = endpoint: mean survival time, dose: 200.0 mg/kg/injection, schedule: Q04DX003 (ip), vehicle: acetone
[19] = endpoint: mean survival time, dose: 400.0 mg/kg/injection, schedule: Q04DX003 (ip), vehicle: acetone

Measured: T/C

O=[N+]([O-])c1cc(Cl)ccc1NC(Nc1ccc(Cl)cc1[N+](=O)[O-])C(Cl)(Cl)Cl
inactive: [1] 101 % of control | [2] 106 % of control | [3] 101 % of control

CN1CCCN(C)C1c1cc(Br)ccc1O
inactive: endpoint: mean survival time, dose: 6.25 mg/kg/injection, schedule: Q01DX009 (ip), vehicle: saline sonified 100 % of control | endpoint: mean survival time, dose: 12.5 mg/kg/injection, schedule: Q01DX009 (ip), vehicle: saline sonified 104 % of control | endpoint: mean survival time, dose: 25.0 mg/kg/injection, schedule: Q01DX009 (ip), vehicle: saline sonified 94 % of control | [4] 101 % of control | [5] 95 % of control | [6] 95 % of control

S=C(NCCSC(=S)Nc1ccccc1)Nc1ccccc1
inactive: [1] 91 % of control | [2] 89 % of control | [3] 106 % of control

CC(C)C1(C)NC(=O)NC1=O (centres undefined)
inactive: endpoint: mean survival time, dose: 100.0 mg/kg/injection, schedule: Q01DX009 (ip), vehicle: saline 105 % of control | endpoint: mean survival time, dose: 200.0 mg/kg/injection, schedule: Q01DX009 (ip), vehicle: saline 94 % of control | endpoint: mean survival time, dose: 400.0 mg/kg/injection, schedule: Q01DX009 (ip), vehicle: saline 98 % of control

CC(=N\O)/C(C)=N/O.CC(=N\O)/C(C)=N/O.O.[CH3-].[Co]
inactive: endpoint: mean survival time, dose: 25.0 mg/kg/injection, schedule: Q04DX003 (ip), vehicle: Klucel (hydroxypropylcellulose) (HPC) 95 % of control | [7] 95 % of control

CC(C#N)(Nc1ccccc1)c1ccccc1 (centres undefined)
inactive: [8] 102 % of control | [9] 103 % of control | [10] 96 % of control

CC1=CC2c3cccc4[nH]cc(c34)CC2N(C)C1 (centres undefined)
inactive: endpoint: median survival time, dose: 1.25 mg/kg/injection, schedule: Q01DX009 (ip), vehicle: suspension in saline 101 % of control | endpoint: median survival time, dose: 2.5 mg/kg/injection, schedule: Q01DX009 (ip), vehicle: suspension in saline 101 % of control | endpoint: median survival time, dose: 5.0 mg/kg/injection, schedule: Q01DX009 (ip), vehicle: suspension in saline 101 % of control | endpoint: median survival time, dose: 10.0 mg/kg/injection, schedule: Q01DX009 (ip), vehicle: suspension in saline 101 % of control | endpoint: median survival time, dose: 20.0 mg/kg/injection, schedule: Q01DX009 (ip), vehicle: suspension in saline 98 % of control

CCOC(=O)CSc1ccccc1
inactive: endpoint: mean survival time, dose: 25.0 mg/kg/injection, schedule: Q01DX005 (ip), vehicle: Klucel (hydroxypropylcellulose) (HPC) 93 % of control | endpoint: mean survival time, dose: 50.0 mg/kg/injection, schedule: Q01DX005 (ip), vehicle: Klucel (hydroxypropylcellulose) (HPC) 95 % of control | [11] 102 % of control | endpoint: mean survival time, dose: 100.0 mg/kg/injection, schedule: Q01DX005 (ip), vehicle: Klucel (hydroxypropylcellulose) (HPC) 102 % of control | [12] 100 % of control | endpoint: mean survival time, dose: 200.0 mg/kg/injection, schedule: Q01DX005 (ip), vehicle: Klucel (hydroxypropylcellulose) (HPC) 95 % of control | [13] 100 % of control | endpoint: mean survival time, dose: 400.0 mg/kg/injection, schedule: Q01DX005 (ip), vehicle: Klucel (hydroxypropylcellulose) (HPC) 95 % of control

CCOC(=O)/C(C#N)=C(\C)c1cccc(C)c1
inactive: [14] 102 % of control | [15] 98 % of control | [1] 103 % of control | [4] 105 % of control

COc1cc2nc(/C=C/c3nc4cc(OC)c(OC)cc4[nH]3)[nH]c2cc1OC
inactive: [16] 106 % of control

c1ccc(-c2nc(-c3ccccc3)n3nc4c(c3c2-c2ccccc2)CCCCCC4)cc1
inactive: [11] 112 % of control | [12] 108 % of control | [13] 87 % of control

COc1ccc2[nH]c3c(c2c1)CSc1ccccc1-3
inactive: [17] 94 % of control | [18] 105 % of control | [19] 100 % of control

CC(=O)Nc1ccc(C)cc1Cl
inactive: [16] 96 % of control | endpoint: mean survival time, dose: 200.0 mg/kg/injection, schedule: Q01DX001 (ip), vehicle: saline with Tween-80 100 % of control | endpoint: mean survival time, dose: 400.0 mg/kg/injection, schedule: Q01DX001 (ip), vehicle: saline with Tween-80 93 % of control

COc1ccc2ccccc2c1-c1c(O)ccc2ccccc12
inactive: endpoint: mean survival time, dose: 12.5 mg/kg/injection, schedule: Q01DX009 (ip), vehicle: other 101 % of control | endpoint: mean survival time, dose: 25.0 mg/kg/injection, schedule: Q01DX009 (ip), vehicle: other 97 % of control | endpoint: mean survival time, dose: 50.0 mg/kg/injection, schedule: Q01DX009 (ip), vehicle: other 91 % of control

Nc1nc(-c2cccc3ccccc23)cc2ccccc12
inactive: endpoint: mean survival time, dose: 12.5 mg/kg/injection, schedule: Q01DX009 (ip), vehicle: saline with Tween-80 89 % of control and 98 % of control | [14] 101 % of control and 102 % of control | [15] 104 % of control and 105 % of control | [1] 112 % of control and 97 % of control | [2] 118 % of control and 106 % of control

NC(=O)c1ncn(C2OC(CO)C(O)C2O)n1 (centres undefined)
inactive: [1] 124 % of control | [8] 100 % of control | [2] 110 % of control | [9] 115 % of control | [3] 93 % of control | [10] 110 % of control

O=C(O)c1ccc(CC2CCC2)cc1
inactive: endpoint: mean survival time, dose: 100.0 mg/kg/injection, schedule: Q04DX002 (ip), vehicle: saline with Tween-80 96 % of control | endpoint: mean survival time, dose: 200.0 mg/kg/injection, schedule: Q04DX002 (ip), vehicle: saline with Tween-80 96 % of control | endpoint: mean survival time, dose: 400.0 mg/kg/injection, schedule: Q04DX002 (ip), vehicle: saline with Tween-80 89 % of control

O=[N+]([O-])c1ccc(Nc2ccc(Br)cc2)c([N+](=O)[O-])c1
inactive: [4] 95 % of control | [5] 93 % of control

CC(C)CCCC(C)C1CCC2C3CCC45CC4C(=O)CCC5(C)C3CCC12C (centres undefined)
inactive: [17] 102 % of control | [4] 91 % of control | [18] 93 % of control | [5] 93 % of control | [19] 89 % of control | [6] 95 % of control

O=C(NCCCN1CCOCC1)c1ccc(C(=O)NCCCN2CCOCC2)cc1
inactive: [11] 95 % of control | [12] 98 % of control | [13] 101 % of control

CC1OC(n2ccc(=O)[nH]c2=O)C(O)C(O)C1=O (centres undefined)
inactive: endpoint: median survival time, dose: 26.5 mg/kg/injection, schedule: Q01DX005 (ip), vehicle: Klucel (hydroxypropylcellulose) (HPC) 102 % of control | endpoint: median survival time, dose: 53.0 mg/kg/injection, schedule: Q01DX005 (ip), vehicle: Klucel (hydroxypropylcellulose) (HPC) 100 % of control | endpoint: median survival time, dose: 106.0 mg/kg/injection, schedule: Q01DX005 (ip), vehicle: Klucel (hydroxypropylcellulose) (HPC) 107 % of control | endpoint: median survival time, dose: 212.0 mg/kg/injection, schedule: Q01DX005 (ip), vehicle: Klucel (hydroxypropylcellulose) (HPC) 101 % of control

CCC(C)CC(N)O (centres undefined)
inactive: endpoint: mean survival time, dose: 75.0 mg/kg/injection, schedule: Q01DX001 (ip), vehicle: saline 103 % of control | endpoint: mean survival time, dose: 150.0 mg/kg/injection, schedule: Q01DX001 (ip), vehicle: saline 97 % of control

N#C/C(=C\c1c[nH]c2ccccc12)C(N)=O
inactive: endpoint: mean survival time, dose: 100.0 mg/kg/injection, schedule: Q01DX009 (ip), vehicle: other 93 % of control | [1] 97 % of control | [2] 92 % of control | endpoint: mean survival time, dose: 400.0 mg/kg/injection, schedule: Q01DX009 (ip), vehicle: other 88 % of control | [3] 97 % of control

C/C(=C/c1ccccc1)C(O)C(=O)O (centres undefined)
inactive: [7] 100 % of control | endpoint: mean survival time, dose: 200.0 mg/kg/injection, schedule: Q04DX003 (ip), vehicle: Klucel (hydroxypropylcellulose) (HPC) 100 % of control

CNC1CC2CCC1(C)C2(C)C (centres undefined)
inactive: endpoint: mean survival time, dose: 25.0 mg/kg/injection, schedule: Q04DX002 (ip), vehicle: saline 101 % of control | endpoint: mean survival time, dose: 50.0 mg/kg/injection, schedule: Q04DX002 (ip), vehicle: saline 112 % of control | endpoint: mean survival time, dose: 100.0 mg/kg/injection, schedule: Q04DX002 (ip), vehicle: saline 96 % of control

O=C(O)CSCc1ccc(Cl)cc1Cl
inactive: endpoint: mean survival time, dose: 50.0 mg/kg/injection, schedule: Q01DX009 (ip), vehicle: Klucel (hydroxypropylcellulose) (HPC) 98 % of control | endpoint: mean survival time, dose: 100.0 mg/kg/injection, schedule: Q01DX009 (ip), vehicle: Klucel (hydroxypropylcellulose) (HPC) 87 % of control | endpoint: mean survival time, dose: 200.0 mg/kg/injection, schedule: Q01DX009 (ip), vehicle: Klucel (hydroxypropylcellulose) (HPC) 93 % of control

O=CC(O)C(O)C(O)CO (centres undefined)
inactive: [11] 96 % of control | [12] 93 % of control | [13] 98 % of control

O=c1sc(N=Nc2ccccc2)nn1-c1ccccc1
inactive: [8] 92 % of control | [9] 91 % of control
